Assay results published in patent US12643903B2, “Bifunctional compounds for degradation of EGFR and related methods of use” (BeiGene, Ltd., priority 2020, dated 2026).

How the values were obtained:
EGFR [1] = target: T1, EGFR (Homo sapiens, UniProt P00533, L858R/T790M); test: Cell Degradation 1: EGFR degradation in H1975 cells, HTRF assay; type: cell-based; settings: 16 h treatment, EGFR degradation by HTRF
T1 construct: endogenous in cells; host or cells: H1975
Protocol: After 16 h treatment, add 100 μl 1×lysis buffer to each well; seal the plate and incubate 1 hour at room temperature on a plate shaker; Once the cells are lysed, 16 μL of cell lysate are transferred to a PE 384-well HTRF detection plate; 4 μL of pre-mixed HTRF antibodies are added to each well; Cover the plate with a plate sealer, spin 1000 rpm for 1 min, Incubate overnight at room temperature; Read on BMG PheraStar with HTRF protocol (337 nm-665 nm-620 nm).
(§1) The IC50 (DC50) value of a compound can be obtained by fitting the following equation Y=Bottom+(TOP−Bottom)/(1+((IC50/X)^hillslope))
(§2) Wherein, X and Y are known values, and IC50, Hillslope, Top and Bottom are the parameters obtained by fitting with software. Y is the inhibition percentage (calculated from the equation), X is the concentration of the compound; IC50 is the concentration of the compound when the 50% inhibition is reached. The smaller the IC50 value is, the stronger the inhibitory ability of the compound is. Vice versa, the higher the IC50 value is, the weaker the ability the inhibitory ability of the compound is; Hillslope represents the slope of the fitted curve, generally around 1*; Bottom represents the minimum value of the curve obtained by data fitting, which is generally 0%±20%; Top represents the maximum value of the curve obtained by data fitting, which is generally 100%±20%. The experimental data were fitted by calculating and analyzing with Dotmatics data analysis software.

EGFR [2] = target: T2, EGFR (Homo sapiens, UniProt P00533, DEL746-750); test: Cell Degradation 2: EGFR degradation in HCC827 cells, HTRF assay; type: cell-based; settings: 16 h treatment, EGFR degradation by HTRF
T2 construct: endogenous in cells; host or cells: HCC827
Protocol: After 16 h treatment, add 100 μl 1×lysis buffer to each well; seal the plate and incubate 1 hour at room temperature on a plate shaker; Once the cells are lysed, 16 μl diluted (2 μL to 14 μl 1× lysisi buffer) cell lysate are transferred to a PE 384-well HTRF detection plate; 4 μL of pre-mixed HTRF antibodies are added to each well; Cover the plate with a plate sealer, spin 1000 rpm for 1 min, Incubate overnight at room temperature; Read on BMG PheraStar with HTRF protocol (337 nm-665 nm-620 nm).
as §1, §2

T2 sequence (P00533 with tags, fused parts or gaps DEL746-750): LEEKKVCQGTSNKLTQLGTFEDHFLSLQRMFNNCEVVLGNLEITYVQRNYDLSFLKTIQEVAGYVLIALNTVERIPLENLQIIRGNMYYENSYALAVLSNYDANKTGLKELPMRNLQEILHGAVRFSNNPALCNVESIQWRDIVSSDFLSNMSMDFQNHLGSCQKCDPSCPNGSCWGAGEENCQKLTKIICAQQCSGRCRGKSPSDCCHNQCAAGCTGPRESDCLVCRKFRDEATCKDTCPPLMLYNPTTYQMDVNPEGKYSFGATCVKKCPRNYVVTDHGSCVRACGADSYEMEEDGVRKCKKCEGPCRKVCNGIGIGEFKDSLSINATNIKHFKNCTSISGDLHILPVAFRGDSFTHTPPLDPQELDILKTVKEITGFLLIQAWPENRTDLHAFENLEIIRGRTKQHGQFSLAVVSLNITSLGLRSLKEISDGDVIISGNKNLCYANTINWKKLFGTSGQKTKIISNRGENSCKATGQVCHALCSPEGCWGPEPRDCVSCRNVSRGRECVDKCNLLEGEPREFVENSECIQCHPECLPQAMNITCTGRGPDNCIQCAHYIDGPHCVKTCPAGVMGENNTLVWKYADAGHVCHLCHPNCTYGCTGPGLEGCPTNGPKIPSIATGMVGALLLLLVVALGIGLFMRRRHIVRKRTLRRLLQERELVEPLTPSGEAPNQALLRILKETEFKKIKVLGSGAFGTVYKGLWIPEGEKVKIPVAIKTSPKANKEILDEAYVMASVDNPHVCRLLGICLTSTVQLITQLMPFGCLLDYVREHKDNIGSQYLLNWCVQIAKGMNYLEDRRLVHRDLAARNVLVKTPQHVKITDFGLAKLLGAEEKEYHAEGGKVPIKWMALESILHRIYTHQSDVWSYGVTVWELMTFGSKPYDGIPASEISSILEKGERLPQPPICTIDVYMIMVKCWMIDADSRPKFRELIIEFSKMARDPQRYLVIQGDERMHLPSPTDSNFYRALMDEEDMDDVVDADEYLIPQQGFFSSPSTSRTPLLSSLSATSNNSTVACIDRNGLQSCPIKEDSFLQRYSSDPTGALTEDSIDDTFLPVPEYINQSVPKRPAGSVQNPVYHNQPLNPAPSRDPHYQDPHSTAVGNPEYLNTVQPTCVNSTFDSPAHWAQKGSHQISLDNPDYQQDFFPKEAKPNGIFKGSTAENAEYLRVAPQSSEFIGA
T2 sequence (Q96SW2 whole entry partner): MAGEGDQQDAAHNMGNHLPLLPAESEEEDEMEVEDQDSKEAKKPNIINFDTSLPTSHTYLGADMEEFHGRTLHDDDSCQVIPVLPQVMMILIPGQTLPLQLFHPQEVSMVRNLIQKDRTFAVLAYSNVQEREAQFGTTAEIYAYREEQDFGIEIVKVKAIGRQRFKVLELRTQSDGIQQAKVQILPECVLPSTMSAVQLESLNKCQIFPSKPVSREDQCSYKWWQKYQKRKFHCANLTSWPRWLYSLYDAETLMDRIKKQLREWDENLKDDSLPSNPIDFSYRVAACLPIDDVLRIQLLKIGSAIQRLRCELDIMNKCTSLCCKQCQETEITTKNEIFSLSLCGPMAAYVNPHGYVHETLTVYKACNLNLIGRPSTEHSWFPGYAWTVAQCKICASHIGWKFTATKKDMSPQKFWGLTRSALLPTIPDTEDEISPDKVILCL
T1 sequence (P00533 25-1210 T790M/L858R): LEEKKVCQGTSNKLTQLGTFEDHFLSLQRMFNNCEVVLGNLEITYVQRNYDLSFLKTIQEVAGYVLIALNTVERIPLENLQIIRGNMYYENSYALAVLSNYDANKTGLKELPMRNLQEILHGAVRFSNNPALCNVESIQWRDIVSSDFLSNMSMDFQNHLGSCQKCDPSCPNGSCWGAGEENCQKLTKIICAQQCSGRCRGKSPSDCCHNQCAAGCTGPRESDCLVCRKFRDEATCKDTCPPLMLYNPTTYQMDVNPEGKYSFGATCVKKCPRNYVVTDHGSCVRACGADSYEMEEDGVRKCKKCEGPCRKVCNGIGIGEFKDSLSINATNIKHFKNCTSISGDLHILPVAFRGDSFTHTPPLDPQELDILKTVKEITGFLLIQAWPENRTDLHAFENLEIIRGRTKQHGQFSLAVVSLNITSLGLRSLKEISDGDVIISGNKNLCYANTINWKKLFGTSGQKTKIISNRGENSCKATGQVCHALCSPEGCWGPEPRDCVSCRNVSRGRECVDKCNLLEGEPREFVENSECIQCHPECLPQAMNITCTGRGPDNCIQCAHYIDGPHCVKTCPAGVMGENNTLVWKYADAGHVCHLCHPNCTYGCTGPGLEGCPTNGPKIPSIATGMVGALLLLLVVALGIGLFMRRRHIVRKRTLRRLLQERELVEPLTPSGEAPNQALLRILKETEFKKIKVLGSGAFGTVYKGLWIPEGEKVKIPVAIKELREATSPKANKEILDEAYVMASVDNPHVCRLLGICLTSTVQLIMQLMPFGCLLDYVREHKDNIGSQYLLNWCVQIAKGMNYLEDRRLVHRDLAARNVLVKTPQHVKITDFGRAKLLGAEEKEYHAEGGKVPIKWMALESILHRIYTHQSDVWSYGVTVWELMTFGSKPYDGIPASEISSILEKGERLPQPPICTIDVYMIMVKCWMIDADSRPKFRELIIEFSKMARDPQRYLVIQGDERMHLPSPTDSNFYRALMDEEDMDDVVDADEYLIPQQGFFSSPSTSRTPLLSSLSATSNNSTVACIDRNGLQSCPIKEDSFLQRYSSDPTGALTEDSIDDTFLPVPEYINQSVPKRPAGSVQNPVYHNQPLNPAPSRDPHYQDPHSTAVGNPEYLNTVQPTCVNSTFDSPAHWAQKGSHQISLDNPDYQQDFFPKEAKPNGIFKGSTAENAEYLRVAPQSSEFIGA

SMILES | DC50 (EGFR [1]) | DC50 (EGFR [2])
COc1cc(N2CCC(N3CCN(CC4CCN(c5ccc(C6CCC(=O)NC6=O)cc5)CC4)CC3)CC2)c(C)cc1Nc1ncc(Br)c(Nc2cccc3c2N(S(C)(=O)=O)CC3)n1 (stereo not shown) [Example 40, 3-(4-(4-((4-(1-(4-((5-bromo-4-((1-(methylsulfonyl)indolin-7-yl)amino)pyrimidin-2-yl)amino)-5-methoxy-2-methylphenyl)piperidin-4-yl)piperazin-1-yl)methyl)piperidin-1-yl)phenyl)piperidine-2,6-dione] | 10.5 nM | 8.2 nM
COc1cc(Nc2nc(Nc3cccc4c3N(S(C)(=O)=O)CC4)c3cc[nH]c3n2)ccc1N1CCC(N2CCN(C(=O)C3CN(c4ccc5c(c4)C(=O)N(C4CCC(=O)NC4=O)C5=O)C3)CC2)CC1 (stereo not shown) [Example 73, 2-(2,6-dioxopiperidin-3-yl)-5-(3-(4-(1-(2-methoxy-4-((4-((1-(methylsulfonyl)indolin-7-yl)amino)-7H-pyrrolo[2,3-d]pyrimidin-2-yl)amino)phenyl)piperidin-4-yl)piperazine-1-carbonyl)azetidin-1-yl)isoindoline-1,3-dione] | 3.4 nM | 1170 nM
CS(=O)(=O)N1CCc2cccc(Nc3nc(Nc4ccc(N5CCC(N6CCN(CCCC7CN(c8ccc9c(c8)C(=O)N(C8CCC(=O)NC8=O)C9=O)C7)CC6)CC5)c5c4OCC5)ncc3Cl)c21 (stereo not shown) [Example 55, 5-(3-(3-(4-(1-(7-((5-chloro-4-((1-(methylsulfonyl)indolin-7-yl)amino)pyrimidin-2-yl)amino)-2,3-dihydrobenzofuran-4-yl)piperidin-4-yl)piperazin-1-yl)propyl)azetidin-1-yl)-2-(2,6-dioxopiperidin-3-yl)isoindoline-1,3-dione] | 9.6 nM | 11.9 nM
CN(CCC1CCN(c2ccc3c(c2)C(=O)N(C2CCC(=O)NC2=O)C3=O)CC1)C1CCN(c2ccc(Nc3ncc(Cl)c(Nc4cccc5c4N(S(C)(=O)=O)CC5)n3)c3c2CCO3)CC1 (stereo not shown) [Example 47, 5-(4-(2-((1-(7-((5-chloro-4-((1-(methylsulfonyl)indolin-7-yl)amino)pyrimidin-2-yl)amino)-2,3-dihydrobenzofuran-4-yl)piperidin-4-yl)(methyl)amino)ethyl)piperidin-1-yl)-2-(2,6-dioxopiperidin-3-yl)isoindoline-1,3-dione] | 21.4 nM | 13.8 nM
COc1cc(N2CCC(N3CCN(C(=O)CCN4CCN(c5ccc6c(c5)C(=O)N(C5CCC(=O)NC5=O)C6=O)CC4)CC3)CC2)c(C)cc1Nc1ncc(Br)c(Nc2cccc3c2N(S(C)(=O)=O)CC3)n1 (stereo not shown) [Example 42, 5-(4-(3-(4-(1-(4-((5-bromo-4-((1-(methylsulfonyl)indolin-7-yl)amino)pyrimidin-2-yl)amino)-5-methoxy-2-methylphenyl)piperidin-4-yl)piperazin-1-yl)-3-oxopropyl)piperazin-1-yl)-2-(2,6-dioxopiperidin-3-yl)isoindoline-1,3-dione] | 13.5 nM | 4.9 nM
COc1cc(N2CCC(N3CCN(CCC4CN(c5ccc(C6CCC(=O)NC6=O)cc5)C4)CC3)CC2)ccc1Nc1ncc(Cl)c(Nc2cccc3c2N(S(C)(=O)=O)CC3)n1 (stereo not shown) [Example 84, 3-(4-(3-(2-(4-(1-(4-((5-chloro-4-((1-(methylsulfonyl)indolin-7-yl)amino)pyrimidin-2-yl)amino)-3-methoxyphenyl)piperidin-4-yl)piperazin-1-yl)ethyl)azetidin-1-yl)phenyl)piperidine-2,6-dione] | > 10000 nM | 1980 nM

The remaining lines, values ahead:

DC50 (EGFR [1]) | DC50 (EGFR [2]) | SMILES
12.2 nM | 3.4 nM | CS(=O)(=O)N1CCc2cccc(Nc3nc(Nc4ccc(N5CCC(N6CCN(CCC7CCN(c8ccc9c(c8)C(=O)N(C8CCC(=O)NC8=O)C9=O)CC7)CC6)CC5)c(F)c4)ncc3Cl)c21 (stereo not shown) [Example 81, 5-(4-(2-(4-(1-(4-((5-chloro-4-((1-(methylsulfonyl)indolin-7-yl)amino)pyrimidin-2-yl)amino)-2-fluorophenyl)piperidin-4-yl)piperazin-1-yl)ethyl)piperidin-1-yl)-2-(2,6-dioxopiperidin-3-yl)isoindoline-1,3-dione]
2.7 nM | 3.1 nM | CS(=O)(=O)N1CCc2cccc(Nc3nc(Nc4ccc(N5CCC(N6CCN(CC7CN(c8ccc9c(c8)CN(C8CCC(=O)NC8=O)C9=O)C7)CC6)CC5)c(F)c4)nc4[nH]ccc34)c21 (stereo not shown) [Example 59, 3-(5-(3-((4-(1-(2-fluoro-4-((4-((1-(methylsulfonyl)indolin-7-yl)amino)-7H-pyrrolo[2,3-d]pyrimidin-2-yl)amino)phenyl)piperidin-4-yl)piperazin-1-yl)methyl)azetidin-1-yl)-1-oxoisoindolin-2-yl)piperidine-2,6-dione]
4.9 nM | 14.6 nM | CS(=O)(=O)N1CCc2cccc(Nc3nc(Nc4ccc(N5CCC(N6CCN(CC7CN(c8ccc9c(c8)C(=O)N(C8CCC(=O)NC8=O)C9=O)C7)CC6)CC5)c(F)c4)nc4[nH]ccc34)c21 (stereo not shown) [Example 60, 2-(2,6-dioxopiperidin-3-yl)-5-(3-((4-(1-(2-fluoro-4-((4-((1-(methylsulfonyl)indolin-7-yl)amino)-7H-pyrrolo[2,3-d]pyrimidin-2-yl)amino)phenyl)piperidin-4-yl)piperazin-1-yl)methyl)azetidin-1-yl)isoindoline-1,3-dione]
5.5 nM | 4.6 nM | CS(=O)(=O)N1CCc2cccc(Nc3nc(Nc4ccc(N5CCC(N6CCN(CCCC7CN(c8ccc9c(c8)C(=O)N(C8CCC(=O)NC8=O)C9=O)C7)CC6)CC5)c(F)c4)ncc3Cl)c21 (stereo not shown) [Example 78, 5-(3-(3-(4-(1-(4-((5-chloro-4-((1-(methylsulfonyl)indolin-7-yl)amino)pyrimidin-2-yl)amino)-2-fluorophenyl)piperidin-4-yl)piperazin-1-yl)propyl)azetidin-1-yl)-2-(2,6-dioxopiperidin-3-yl)isoindoline-1,3-dione]
14.1 nM | 10.8 nM | CS(=O)(=O)N1CCc2cccc(Nc3nc(Nc4ccc(N5CCC(N6CCN(CCC7CCN(c8ccc9c(c8)CN(C8CCC(=O)NC8=O)C9=O)CC7)CC6)CC5)c(F)c4)nc4[nH]ccc34)c21 (stereo not shown) [Example 18, 3-(5-(4-(2-(4-(1-(2-fluoro-4-((4-((1-(methylsulfonyl)indolin-7-yl)amino)-7H-pyrrolo[2,3-d]pyrimidin-2-yl)amino)phenyl)piperidin-4-yl)piperazin-1-yl)ethyl)piperidin-1-yl)-1-oxoisoindolin-2-yl)piperidine-2,6-dione]
23.7 nM | 123 nM | CS(=O)(=O)N1CCc2cccc(Nc3nc(Nc4ccc(N5CCC(N6CCN(C(=O)CCN7CCC(c8ccc(C9CCC(=O)NC9=O)cc8)CC7)CC6)CC5)c(F)c4)nc4[nH]ccc34)c21 (stereo not shown) [Example 11, 3-(4-(1-(3-(4-(1-(2-fluoro-4-((4-((1-(methylsulfonyl)indolin-7-yl)amino)-7H-pyrrolo[2,3-d]pyrimidin-2-yl)amino)phenyl)piperidin-4-yl)piperazin-1-yl)-3-oxopropyl)piperidin-4-yl)phenyl)piperidine-2,6-dione]
27.1 nM | 92.2 nM | CS(=O)(=O)N1CCc2cccc(Nc3nc(Nc4ccc(N5CCC(N6CCN(C(=O)C7CCN(CC8CCN(c9ccc%10c(c9)C(=O)N(C9CCC(=O)NC9=O)C%10=O)CC8)CC7)CC6)CC5)c(F)c4)nc4[nH]ccc34)c21 (stereo not shown) [Example 14, 2-(2,6-dioxopiperidin-3-yl)-5-(4-((4-(4-(1-(2-fluoro-4-((4-((1-(methylsulfonyl)indolin-7-yl)amino)-7H-pyrrolo[2,3-d]pyrimidin-2-yl)amino)phenyl)piperidin-4-yl)piperazine-1-carbonyl)piperidin-1-yl)methyl)piperidin-1-yl)isoindoline-1,3-dione]
3.9 nM | > 10000 nM | COc1cc(Nc2nc(Nc3cccc4c3N(S(C)(=O)=O)CC4)c3cc[nH]c3n2)ccc1N1CCC(N2CCN(C(=O)[C@@H]3CCN(c4ccc5c(c4)C(=O)N(C4CCC(=O)NC4=O)C5=O)C3)CC2)CC1 (stereo partly drawn) [Example 75, 2-(2,6-dioxopiperidin-3-yl)-5-((R)-3-(4-(1-(2-methoxy-4-((4-((1-(methylsulfonyl)indolin-7-yl)amino)-7H-pyrrolo[2,3-d]pyrimidin-2-yl)amino)phenyl)piperidin-4-yl)piperazine-1-carbonyl)pyrrolidin-1-yl)isoindoline-1,3-dione]
